# The source made the active and inactive calls. No cut-off for these calls is given here.
# How the values were obtained:
# [1] = Drug accumulation in human PC-3 cells at 1 uM incubated for 2 hrs by LC-MS/MS analysis; assay type: ADME, cell-based; conditions: pc-3, 2 h
# PC-3 [2] = test: Cytotoxicity against human PC-3 cells incubated for 72 hrs by MTT assay; assay type: functional, cell-based; conditions: PC-3, 72 h
# [3] = Selectivity index, ratio of IC50 for human skin fibroblast to IC50 for human PC-3 cells; assay type: toxicity; conditions: human skin fibroblasts and PC-3 cells, read-out: Ratio IC50
# Caco-2 = test: Cytotoxicity against human Caco-2 cells incubated for 72 hrs by MTT assay; assay type: functional, cell-based; conditions: Caco-2, 72 h
# [4] = Selectivity index, ratio of IC50 for human skin fibroblast to IC50 for human Caco-2 cells
# MCF7 = test: Cytotoxicity against human MCF7 cells incubated for 72 hrs by MTT assay; assay type: functional, cell-based; conditions: MCF7, 72 h
# [5] = Cytotoxicity against human skin fibroblast cells incubated for 72 hrs by MTT assay; assay type: toxicity, cell-based
# PC-3 [6] = test: Induction of mitochondrial transmembrane potential dissipation in human PC-3 cells at 30 uM incubated for 1 hr by TMRE staining based flow cytometry; assay type: functional, cell-based
# PC-3 [7] = test: […] of ROS production in human PC-3 cells at 30 uM incubated for 1 hr by MitoSOX staining based flow cytometry; assay type: functional, cell-based
# PC-3 [8] = test: Downregulation of Akt expression in human PC-3 cells at IC50 incubated for 3 days by Western blot analysis; assay type: functional, cell-based; conditions: time 3.0 day
# PC-3 [9] = test: Upregulation of Cas3 expression in human PC-3 cells at IC50 incubated for 3 days by Western blot analysis; assay type: functional, cell-based; conditions: time 3.0 day
# PC-3 [10] = test: Downregulation of ATG14 expression in human PC-3 cells at IC50 incubated for 3 days by Western blot analysis; assay type: functional, cell-based; conditions: time 3.0 day
# PC-3 [11] = test: Downregulation of Beclin-1 expression in human PC-3 cells at IC50 incubated for 3 days by Western blot analysis; assay type: functional, cell-based; conditions: time 3.0 day
# PC-3 [12] = test: Downregulation of LC-3 expression in human PC-3 cells at IC50 incubated for 3 days by Western blot analysis; assay type: functional, cell-based; conditions: time 3.0 day
SMILES,Drug uptake [1],IC50 (PC-3 [2]),selectivity ratio [3],IC50 (Caco-2),Ratio IC50 [4],IC50 (MCF7),IC50 at 72 h [5],Activity (PC-3 [6]),Activity (PC-3 [7]),Activity (PC-3 [8]),Activity (PC-3 [9]),Activity (PC-3 [10]),Activity (PC-3 [11]),Activity (PC-3 [12])
C=C(C)[C@@H]1CC[C@]2(C(=O)O)CC[C@]3(C)[C@H](CC[C@@H]4[C@@]5(C)CC[C@H](O)C(C)(C)[C@@H]5CC[C@]43C)[C@@H]12 [BETULINIC ACID],0.035 µM,,,,,,,,,,,,,
C=C(C)[C@@H]1CC[C@]2(C(=O)OCCCCCC[P+](c3ccccc3)(c3ccccc3)c3ccccc3)CC[C@]3(C)[C@H](CC[C@@H]4[C@@]5(C)CC[C@H](O)C(C)(C)[C@@H]5CC[C@]43C)[C@@H]12.[Br-],3.5 µM,0.8 µM,8.3,1.4 µM,4.7,0.8 µM,8.5 µM,,,,,,,
C=C(C)[C@@H]1CC[C@]2(C(=O)OCCCCCC[P+](c3ccccc3)(c3ccccc3)c3ccccc3)CC[C@]3(C)[C@H](CC[C@@H]4[C@@]5(C)CC[C@H](O[C@@H]6O[C@@H](C)[C@H](O)[C@@H](O)[C@H]6O)C(C)(C)[C@@H]5CC[C@]43C)[C@@H]12.[Br-],3.5 µM,1.2 µM,9.7,2 µM,5.9,1.1 µM,10.8 µM,Active,Active,Active,Active,Active,Active,Active
C=C(C)[C@@H]1CC[C@]2(C(=O)OCCCCCC[P+](c3ccccc3)(c3ccccc3)c3ccccc3)CC[C@]3(C)[C@H](CC[C@@H]4[C@@]5(C)CC[C@H](O[C@H]6O[C@H](CO)[C@@H](O)[C@H](O)[C@@H]6O)C(C)(C)[C@@H]5CC[C@]43C)[C@@H]12.[Br-],3.5 µM,2.3 µM,2.5,2.4 µM,2.4,2 µM,2.9 µM,Active,Active,,,,,
C=C(C)[C@@H]1CC[C@]2(C(=O)OCCCCCC[P+](c3ccccc3)(c3ccccc3)c3ccccc3)CC[C@]3(C)[C@H](CC[C@@H]4[C@@]5(C)CC[C@H](O[C@@H]6O[C@H](CO)[C@@H](O)[C@H](O)[C@H]6O)C(C)(C)[C@@H]5CC[C@]43C)[C@@H]12.[Br-],172.9 µM,0.4 µM,32,1.1 µM,10.2,0.7 µM,16.5 µM,Active,Active,Active,Active,Active,Active,Active

# Reference: ChEMBL document CHEMBL5360626, “Bifunctionalized Betulinic Acid Conjugates with C-3-Monodesmoside and C-28-Triphenylphosphonium Moieties with Increased Cancer Cell Targetability” (J Nat Prod, 2023)
